Reference: patent publication US20150182745A1, “IONTOPHORETIC DEVICE FOR DOSAGING OF AN ACTIVE INGREDIENT” (NOVAGENT OY, priority 2012, published 2015)

Legend:
[1] = swine
From the text: The invention is further described more in detail by the following examples. In the examples a device according to FIG. 2 was used. The electrodes are made of a carbon fiber textile, onto which a hydrophobic micro-porous layer of teflon is fitted. As model agent was used tacrine, which is a cationic drug. The chamber section 13a, the electrolyte space, comprised a 0.15 M aqueous solution of sodium sulphate and the chamber section 13b, the space comprising the active agent, comprised a 0.15 M aqueous solution of sodium chloride, which corresponds to a physiological salt solution. […] The membrane 15 was either a synthetic membrane (UC 101T) or swine skin. In the experiments were used Smopex®-ion exchanging fibres, made by Smoptech (Johnson Matthey).

[2] = in vivo; cited from earlier work

SMILES: Nc1c2c(nc3ccccc13)CCCC2 [tacrine]
- passive flow [1]: 1.99 μg cm^−2h^−1
- passive flow (slope) [1]: 1.81 μg cm^−2h^−1
- clearance CL [2]: 150 dm^3h^−1
- therapeutic window [2]: 5-30 μg dm^−3
